Test results published in patent publication US9944971B2, “Determination of direct thrombin inhibitors in fluids like serum or urine” (DOASENSE GmbH, priority 2011, dated 2018).

Key:
[1] = Concentration of dabigatran in urine of a treated patient, read from curve of spiked urine; design: species or system human
Experimental: This program quantifies the colors red, yellow and blue. […] Mean values were calculated from double values.

thrombin = biological target: T1, thrombin (Bos taurus, UniProt P00735); assay: Chromogenic thrombin (factor IIa) inhibition test with substrate S-2238, absorption at 405 nm; format: biochemical; details: samples of plasma, serum and urine spiked at different concentrations, FIGS. 2 and 3
T1 construct: purchased Chromogenix
Experimental: Dissolve 1 ampule thrombin 10 U with 1 ml aqua. dest and is brought to 11.5 ml with Tris-Buffer. Additionally, add 1 ml aprotinin 500 KIU/ml.
The concentration of Dabigatran and Hirudin was carried out using the standard curve. The concentration of Dabigatran/Hirudin was determined by the optical density (OD) of the sample.

Row | concentration of dabigatran ([1]; human urine from a patient treated with dabigatran, undiluted) | concentration of dabigatran ([1]; patient urine diluted 1:10 with urine not containing dabigatran) | concentration of dabigatran ([1]; patient urine diluted 1:100 with urine not containing dabigatran) | inhibition of the activity of thrombin and release of para-nitroaniline from chromogenic substrate S2238 (thrombin) | Compound
1 | 85 ng | 8.5 ng | 0.85 ng | – | [H]/N=C(/N)c1ccc(NCc2nc3cc(C(=O)N(CCC(=O)O)c4ccccn4)ccc3n2C)cc1 [Dabigatran]
2 | – | – | – | in a dose-dependent manner | Hirudin
